Measurements from patent US20230126893A1, “[(1,4,5-TRISUBSTITUTED-1H-PYRAZOL-3-YL)SULFANYL]ACETIC ACID DERIVATIVES, SALTS THEREOF, AND USE THEREOF AS ACTIVE HERBICIDAL INGREDIENTS” (BAYER AKTIENGESELLSCHAFT, priority 2020, published 2023).

What follows are compounds tested on Alopecurus myosuroides (assay: Pre-emergence herbicidal effect against ALOMY). Details: 1280 g/ha, visual score after 3 weeks, 100% = plants have died, 0% = like control plants.
Format: in vivo
Method in brief: (§1)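 Visual rating against untreated controls after 3 weeks in greenhouse, from 0% (no difference) to 100% (dead plants). Compound, as WP or EC with 0.2% wetting agent in 600 to 800 L/ha water, applied to covering soil over seeds sown in sandy loam.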

Structure (SMILES)	Pre-emergence action against ALOMY
CCOC(=O)CSc1nn(-c2ccccc2F)c(-c2ccc(F)c(F)c2)c1Cl [Example I-001]	100%
CCOC(=O)CSc1nn(-c2ccccc2F)c(-c2ccc(F)nc2)c1Br [II-001, Ethyl {[4-bromo-1-(2-fluorophenyl)-5-(6-fluoropyridin-3-yl)-1H-pyrazol-3-yl]sulfanyl}acetate]	100%

These compounds were tested on Tripleurospermum inodorum (assay: Post-emergence herbicidal effect against MATIN). Details: 1280 g/ha, visual assessment about 3 weeks after treatment, 100% = plants have died, 0% = like control plants.
Format: in vivo
Method in brief: (§2)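 Activity scored visually as percent damage relative to untreated plants (100% = dead) roughly 3 weeks post-spray. Plants at the one-leaf stage, 2–3 weeks old in sandy loam under greenhouse conditions, received WP/EC formulations in 600–800 l/ha water plus 0.2% wetting agent.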

Structure (SMILES)	Post-emergence action against MATIN
CCOC(=O)CSc1nn(-c2ccccc2F)c(-c2ccc(F)c(F)c2)c1Cl [Example I-001]	100%
CCOC(=O)CSc1nn(-c2ccccc2F)c(-c2ccc(F)nc2)c1Br [II-001, Ethyl {[4-bromo-1-(2-fluorophenyl)-5-(6-fluoropyridin-3-yl)-1H-pyrazol-3-yl]sulfanyl}acetate]	100%

The compounds below were run on Echinochloa crus-galli (assay: Post-emergence herbicidal effect against ECHCG). Details: 1280 g/ha, visual score after about 3 weeks, 100% = plants have died, 0% = like control plants.
Format: in vivo
Method in brief: as §2

Structure (SMILES)	Post-emergence action against ECHCG
CCOC(=O)CSc1nn(-c2ccccc2F)c(-c2ccc(F)c(F)c2)c1Cl [Example I-001]	100%
CCOC(=O)CSc1nn(-c2ccccc2F)c(-c2ccc(F)nc2)c1Br [II-001, Ethyl {[4-bromo-1-(2-fluorophenyl)-5-(6-fluoropyridin-3-yl)-1H-pyrazol-3-yl]sulfanyl}acetate]	100%

Each compound was assayed on Stellaria media (assay: Pre-emergence herbicidal effect against STEME). Details: 1280 g/ha, visual score after 3 weeks, 100% = plants have died, 0% = like control plants.
Format: in vivo
Method in brief: as §1

Structure (SMILES)	Pre-emergence action against STEME
CCOC(=O)CSc1nn(-c2ccccc2F)c(-c2ccc(F)c(F)c2)c1Cl [Example I-001]	100%
CCOC(=O)CSc1nn(-c2ccccc2F)c(-c2ccc(F)nc2)c1Br [II-001, Ethyl {[4-bromo-1-(2-fluorophenyl)-5-(6-fluoropyridin-3-yl)-1H-pyrazol-3-yl]sulfanyl}acetate]	90%

The compounds below were run on Tripleurospermum inodorum (assay: Pre-emergence herbicidal effect against MATIN). Details: 1280 g/ha, visual score after 3 weeks, 100% = plants have died, 0% = like control plants.
Format: in vivo
Method in brief: as §1

Structure (SMILES)	Pre-emergence action against MATIN
CCOC(=O)CSc1nn(-c2ccccc2F)c(-c2ccc(F)c(F)c2)c1Cl [Example I-001]	90%
CCOC(=O)CSc1nn(-c2ccccc2F)c(-c2ccc(F)nc2)c1Br [II-001, Ethyl {[4-bromo-1-(2-fluorophenyl)-5-(6-fluoropyridin-3-yl)-1H-pyrazol-3-yl]sulfanyl}acetate]	100%

What follows are compounds tested on Lolium rigidum (assay: Pre-emergence herbicidal effect against LOLRI). Details: 1280 g/ha, visual score after 3 weeks, 100% = plants have died, 0% = like control plants.
Format: in vivo
Method in brief: as §1

Structure (SMILES)	Pre-emergence action against LOLRI
CCOC(=O)CSc1nn(-c2ccccc2F)c(-c2ccc(F)c(F)c2)c1Cl [Example I-001]	100%
CCOC(=O)CSc1nn(-c2ccccc2F)c(-c2ccc(F)nc2)c1Br [II-001, Ethyl {[4-bromo-1-(2-fluorophenyl)-5-(6-fluoropyridin-3-yl)-1H-pyrazol-3-yl]sulfanyl}acetate]	100%

What follows are compounds tested on Stellaria media (assay: Post-emergence herbicidal effect against STEME). Details: 1280 g/ha, visual assessment about 3 weeks after treatment, 100% = plants have died, 0% = like control plants.
Format: in vivo
Method in brief: as §2

Structure (SMILES)	Post-emergence action against STEME
CCOC(=O)CSc1nn(-c2ccccc2F)c(-c2ccc(F)c(F)c2)c1Cl [Example I-001]	100%
CCOC(=O)CSc1nn(-c2ccccc2F)c(-c2ccc(F)nc2)c1Br [II-001, Ethyl {[4-bromo-1-(2-fluorophenyl)-5-(6-fluoropyridin-3-yl)-1H-pyrazol-3-yl]sulfanyl}acetate]	90%

Each compound was assayed on Poa annua (assay: Post-emergence herbicidal effect against POAAN). Details: 1280 g/ha, visual assessment about 3 weeks after treatment, 100% = plants have died, 0% = like control plants.
Format: in vivo
Method in brief: as §2

Structure (SMILES)	Post-emergence action against POAAN
CCOC(=O)CSc1nn(-c2ccccc2F)c(-c2ccc(F)c(F)c2)c1Cl [Example I-001]	100%
CCOC(=O)CSc1nn(-c2ccccc2F)c(-c2ccc(F)nc2)c1Br [II-001, Ethyl {[4-bromo-1-(2-fluorophenyl)-5-(6-fluoropyridin-3-yl)-1H-pyrazol-3-yl]sulfanyl}acetate]	100%

What follows are compounds tested on Digitaria sanguinalis (assay: Post-emergence herbicidal effect against DIGSA). Details: 1280 g/ha, visual score after about 3 weeks, 100% = plants have died, 0% = like control plants.
Format: in vivo
Description: (§3) [table] 2. Post-emergence herbicidal effect and crop plant compatibility Seeds of monocotyledonous and dicotyledonous weed and crop plants are laid out in sandy loam soil in wood-fibre pots, covered with soil and cultivated in a greenhouse under good growth conditions. 2 to 3 weeks after sowing, the test plants are treated at the one-leaf stage. The compounds of the invention, formulated in the form of wettable powders (WP) or as emulsion concentrates (EC), are then sprayed onto the green parts of the plants as aqueous suspension or emulsion at a water application rate equating to 600 to 800 l/ha with addition of 0.2% wetting agent. After the test plants have been left to stand in the greenhouse under optimal growth conditions for about 3 weeks, the action of the preparations is assessed visually in comparison to untreated controls (herbicidal action in percent (%): 100% activity=the plants have died, 0% activity=like control plants).

Structure (SMILES)	Post-emergence action against DIGSA
CCOC(=O)CSc1nn(-c2ccccc2F)c(-c2ccc(F)c(F)c2)c1Cl [Example I-001]	100%
CCOC(=O)CSc1nn(-c2ccccc2F)c(-c2ccc(F)nc2)c1Br [II-001, Ethyl {[4-bromo-1-(2-fluorophenyl)-5-(6-fluoropyridin-3-yl)-1H-pyrazol-3-yl]sulfanyl}acetate]	100%

Each compound was assayed on Abutylon threophrasti (assay: Post-emergence herbicidal effect against ABUTH). Details: 1280 g/ha, visual assessment about 3 weeks after treatment, 100% = plants have died, 0% = like control plants.
Format: in vivo
Method in brief: as §2

Structure (SMILES)	Post-emergence action against ABUTH
CCOC(=O)CSc1nn(-c2ccccc2F)c(-c2ccc(F)c(F)c2)c1Cl [Example I-001]	90%
CCOC(=O)CSc1nn(-c2ccccc2F)c(-c2ccc(F)nc2)c1Br [II-001, Ethyl {[4-bromo-1-(2-fluorophenyl)-5-(6-fluoropyridin-3-yl)-1H-pyrazol-3-yl]sulfanyl}acetate]	90%

What follows are compounds tested on Amaranthus retroflexus (assay: Post-emergence herbicidal effect against AMARE). Details: 1280 g/ha, visual assessment about 3 weeks after treatment, 100% = plants have died, 0% = like control plants.
Format: in vivo
Description: as §3

Structure (SMILES)	Post-emergence action against AMARE
CCOC(=O)CSc1nn(-c2ccccc2F)c(-c2ccc(F)c(F)c2)c1Cl [Example I-001]	90%
CCOC(=O)CSc1nn(-c2ccccc2F)c(-c2ccc(F)nc2)c1Br [II-001, Ethyl {[4-bromo-1-(2-fluorophenyl)-5-(6-fluoropyridin-3-yl)-1H-pyrazol-3-yl]sulfanyl}acetate]	100%

The compounds below were run on Veronica persica (assay: Post-emergence herbicidal effect against VERPE). Details: 1280 g/ha, visual assessment about 3 weeks after treatment, 100% = plants have died, 0% = like control plants.
Format: in vivo
Method in brief: as §2

Structure (SMILES)	Post-emergence action against VERPE
CCOC(=O)CSc1nn(-c2ccccc2F)c(-c2ccc(F)c(F)c2)c1Cl [Example I-001]	100%
CCOC(=O)CSc1nn(-c2ccccc2F)c(-c2ccc(F)nc2)c1Br [II-001, Ethyl {[4-bromo-1-(2-fluorophenyl)-5-(6-fluoropyridin-3-yl)-1H-pyrazol-3-yl]sulfanyl}acetate]	90%

These compounds were tested on Bassia scoparia (assay: Post-emergence herbicidal effect against KCHSC). Details: 1280 g/ha, visual assessment about 3 weeks after treatment, 100% = plants have died, 0% = like control plants.
Format: in vivo
Method in brief: as §2

Structure (SMILES)	Post-emergence action against KCHSC
CCOC(=O)CSc1nn(-c2ccccc2F)c(-c2ccc(F)c(F)c2)c1Cl [Example I-001]	90%

These compounds were tested on Alopecurus myosuroides (assay: Post-emergence herbicidal effect against ALOMY). Details: 1280 g/ha, visual score after about 3 weeks, 100% = plants have died, 0% = like control plants.
Format: in vivo
Method in brief: as §2

Structure (SMILES)	Post-emergence action against ALOMY
CCOC(=O)CSc1nn(-c2ccccc2F)c(-c2ccc(F)c(F)c2)c1Cl [Example I-001]	100%
CCOC(=O)CSc1nn(-c2ccccc2F)c(-c2ccc(F)nc2)c1Br [II-001, Ethyl {[4-bromo-1-(2-fluorophenyl)-5-(6-fluoropyridin-3-yl)-1H-pyrazol-3-yl]sulfanyl}acetate]	100%

What follows are compounds tested on Echinochloa crus-galli (assay: Pre-emergence herbicidal effect against ECHCG). Details: 1280 g/ha, visual score after 3 weeks, 100% = plants have died, 0% = like control plants.
Format: in vivo
Method in brief: as §1

Structure (SMILES)	Pre-emergence action against ECHCG
CCOC(=O)CSc1nn(-c2ccccc2F)c(-c2ccc(F)nc2)c1Br [II-001, Ethyl {[4-bromo-1-(2-fluorophenyl)-5-(6-fluoropyridin-3-yl)-1H-pyrazol-3-yl]sulfanyl}acetate]	100%

Each compound was assayed on Amaranthus retroflexus (assay: Pre-emergence herbicidal effect against AMARE). Details: 1280 g/ha, visual score after 3 weeks, 100% = plants have died, 0% = like control plants.
Format: in vivo
From the text: 1. Pre-emergence herbicidal effect and crop plant compatibility Seeds of monocotyledonous and dicotyledonous weed plants and crop plants are laid out in sandy loam soil in wood-fibre pots and covered with soil. The compounds of the invention, formulated in the form of wettable powders (WP) or as emulsion concentrates (EC), are then applied to the surface of the covering soil as aqueous suspension or emulsion at a water application rate equating to 600 to 800 L/ha with addition of 0.2% wetting agent. After the treatment, the pots are placed in a greenhouse and kept under good growth conditions for the trial plants. The damage to the test plants is scored visually after a test period of 3 weeks by comparison with untreated controls (herbicidal activity in percent (%): 100% activity=the plants have died, 0% activity=like control plants). [table]

Structure (SMILES)	Pre-emergence action against AMARE
CCOC(=O)CSc1nn(-c2ccccc2F)c(-c2ccc(F)c(F)c2)c1Cl [Example I-001]	100%
CCOC(=O)CSc1nn(-c2ccccc2F)c(-c2ccc(F)nc2)c1Br [II-001, Ethyl {[4-bromo-1-(2-fluorophenyl)-5-(6-fluoropyridin-3-yl)-1H-pyrazol-3-yl]sulfanyl}acetate]	100%

These compounds were tested on Setaria viridis (assay: Pre-emergence herbicidal effect against SETVI). Details: 1280 g/ha, visual score after 3 weeks, 100% = plants have died, 0% = like control plants.
Format: in vivo
Method in brief: as §1

Structure (SMILES)	Pre-emergence action against SETVI
CCOC(=O)CSc1nn(-c2ccccc2F)c(-c2ccc(F)c(F)c2)c1Cl [Example I-001]	100%
CCOC(=O)CSc1nn(-c2ccccc2F)c(-c2ccc(F)nc2)c1Br [II-001, Ethyl {[4-bromo-1-(2-fluorophenyl)-5-(6-fluoropyridin-3-yl)-1H-pyrazol-3-yl]sulfanyl}acetate]	100%

Each compound was assayed on Poa annua (assay: Pre-emergence herbicidal effect against POAAN). Details: 1280 g/ha, visual score after 3 weeks, 100% = plants have died, 0% = like control plants.
Format: in vivo
Method in brief: as §1

Structure (SMILES)	Pre-emergence action against POAAN
CCOC(=O)CSc1nn(-c2ccccc2F)c(-c2ccc(F)c(F)c2)c1Cl [Example I-001]	100%
CCOC(=O)CSc1nn(-c2ccccc2F)c(-c2ccc(F)nc2)c1Br [II-001, Ethyl {[4-bromo-1-(2-fluorophenyl)-5-(6-fluoropyridin-3-yl)-1H-pyrazol-3-yl]sulfanyl}acetate]	100%

The compounds below were run on Veronica persica (assay: Pre-emergence herbicidal effect against VERPE). Details: 1280 g/ha, visual score after 3 weeks, 100% = plants have died, 0% = like control plants.
Format: in vivo
Method in brief: as §1

Structure (SMILES)	Pre-emergence action against VERPE
CCOC(=O)CSc1nn(-c2ccccc2F)c(-c2ccc(F)c(F)c2)c1Cl [Example I-001]	100%
CCOC(=O)CSc1nn(-c2ccccc2F)c(-c2ccc(F)nc2)c1Br [II-001, Ethyl {[4-bromo-1-(2-fluorophenyl)-5-(6-fluoropyridin-3-yl)-1H-pyrazol-3-yl]sulfanyl}acetate]	100%

The compounds below were run on Digitaria sanguinalis (assay: Pre-emergence herbicidal effect against DIGSA). Details: 1280 g/ha, visual score after 3 weeks, 100% = plants have died, 0% = like control plants.
Format: in vivo
Method in brief: as §1

Structure (SMILES)	Pre-emergence action against DIGSA
CCOC(=O)CSc1nn(-c2ccccc2F)c(-c2ccc(F)c(F)c2)c1Cl [Example I-001]	100%
CCOC(=O)CSc1nn(-c2ccccc2F)c(-c2ccc(F)nc2)c1Br [II-001, Ethyl {[4-bromo-1-(2-fluorophenyl)-5-(6-fluoropyridin-3-yl)-1H-pyrazol-3-yl]sulfanyl}acetate]	100%

The compounds below were run on Setaria viridis (assay: Post-emergence herbicidal effect against SETVI). Details: 1280 g/ha, visual assessment about 3 weeks after treatment, 100% = plants have died, 0% = like control plants.
Format: in vivo
Method in brief: as §2

Structure (SMILES)	Post-emergence action against SETVI
CCOC(=O)CSc1nn(-c2ccccc2F)c(-c2ccc(F)c(F)c2)c1Cl [Example I-001]	90%
CCOC(=O)CSc1nn(-c2ccccc2F)c(-c2ccc(F)nc2)c1Br [II-001, Ethyl {[4-bromo-1-(2-fluorophenyl)-5-(6-fluoropyridin-3-yl)-1H-pyrazol-3-yl]sulfanyl}acetate]	90%
